In patent publication EP4755888A1 (ILAb Co., Ltd., priority 2023, dated 2025):

What was measured:
[1] = target: T1, PD-L1 expressed on the cell surface (MC38 hPD-L1) (Homo sapiens, UniProt Q9NZQ7); experiment: Internalization of cell surface PD-L1, flow cytometry with fluorescent staining; type: cell-based; settings: MC38 hPD-L1 cells, 1 µM, 4 hours; untreated 90% to 99%
T1 construct: expressed in transfected cells; host or cells: MC38 mouse colon cancer cell line expressing human PD-L1
Description: In order to evaluate the internalization of cell surface PD-L1 induced by the compounds of the present invention synthesized according to the above Preparation Examples, a flow cytometry experiment using fluorescent staining was conducted as described below.
Specifically, a mouse colon cancer cell line expressing human PD-L1 (MC38 hPD-L1) was seeded into a 24-well plate at a density of 5 x 10^5 cells per well, followed by treatment with Compounds 206 to 227 at a concentration of 1 µM and incubation for 4 hours. After 4 hours, the compound-treated MC38 hPD-L1 cells were collected and stained with PE anti-hPD-L1 fluorecence at room temperature for 30 minutes. The rate of PD-L1 expression on the cell surface was then quantified using flow cytometry.

PD-1/PD-L1 [2] = experiment: PD-1/PD-L1 blockade bioassay at the cellular level (PD-L1 aAPC/CHO-K1 cells + PD-1 Effector T cells, luciferase); type: cell-based; settings: Homo sapiens, T-cell; PD-L1 aAPC/CHO-K1 cells with PD-1 Effector T cells, 6 hours, luminescence; read-out: PD-1/PD-L1 Inhibitory Activity EC50
Description: In order to evaluate the effect of the compounds of the present invention, synthesized according to the above Preparation Examples, on blocking signal transduction between PD-1/PD-L1-expressing cells, a PD-1/PD-L1 blockade bioassay was conducted as described below.
Specifically, PD-L1 aAPC/CHO-K1 cells engineered to express human PD-L1 were seeded into a 96-well white plate and cultured for one day. On the following day, the compounds were prepared in a 96-well plate by serial dilution at concentrations starting from 10 µM and 5 µM, followed by 1/4 dilutions to obtain a total of ten concentrations. The culture medium in the plate seeded with the PD-L1 aAPC/CHO-K1 cell line was removed, and 40 µL of each prepared compound solution was added to a 96-well plate. Thereafter, 40 µL of PD-1 Effector T cell line engineered to express human PD-1 was additionally added, and then cultured for 6 hours. After 6 hours, 80 µL of Bio-Glo luciferase buffer was added to each well, followed by incubation at room temperature for 10 minutes, and luminescence was measured using a microplate reader.

PD-1/PD-L1 [3] = target: PD-1/PD-L1 (Homo sapiens, UniProt Q9NZQ7); experiment: TR-FRET PD-1/PD-L1 binding inhibition at the molecular level (free proteins); settings: Tag1-PD-L1 and Tag2-PD-1 proteins, twelve concentrations from 200 nM, 2 hours at room temperature, read-out: FRET assay (IC50)
Sequence of PD-1/PD-L1 (Homo sapiens, UniProt Q9NZQ7) (Q9NZQ7 19-238 limits assumed): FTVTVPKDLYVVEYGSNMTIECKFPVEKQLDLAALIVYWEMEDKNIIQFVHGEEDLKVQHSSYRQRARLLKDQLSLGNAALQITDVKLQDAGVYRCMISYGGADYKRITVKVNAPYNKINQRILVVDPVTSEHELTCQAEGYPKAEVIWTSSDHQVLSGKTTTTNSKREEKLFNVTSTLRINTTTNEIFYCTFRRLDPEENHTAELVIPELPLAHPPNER
Outline: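 HTRF read-out at 665/620 nm after 2 h at room temperature. Detection used anti-Tag1 Eu cryptate plus anti-Tag2 XL665 antibodies. Tagged PD-L1 and PD-1 proteins were pre-mixed with compound across twelve […] 1:2 dilutions starting at 200 nM.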

hPD-L1 = hPD-L1 (Homo sapiens, UniProt Q9NZQ7); experiment: TR-FRET dimerization of hPD-L1 molecules; type: biochemical; settings: for EC50: Fc tag-hPD-L1 and His tag-hPD-L1, twelve concentrations from 10 µM; for induction of dimerization of hPD-L1 molecules (in words): summary of Table 3
Sequence of hPD-L1 (Q9NZQ7 19-238 limits assumed): as above
Sequence of hPD-L1 (Q9NZQ7 19-238 limits assumed): as above
Description: In order to evaluate the dimerization of hPD-L1 molecules induced by the compounds of the present invention synthesized according to the above Preparation Examples, a TR-FRET (Time-Resolved Fluorescence Energy Transfer) experiment was performed as described below.
Specifically, the compounds were prepared in a 96-well plate by serial dilution starting from 10 µM with 1/3 dilutions to obtain a total of twelve concentrations. Thereafter, 2 µL of each compound solution was added to a 384-well plate. Fc tag-hPD-L1 protein and His tag-hPD-L1 protein were each prepared at a 1x concentration, mixed at a ratio of 1:1 of above two proteins, and 8 µL of the mixed protein solution was added to each well of the 384-well plate containing the compounds, followed by incubation at room temperature for one day. On the following day, Anti-6His-Tb Cryptate Gold antibody and Anti-human IgG-XL665 antibody were each prepared at a 1x concentration, mixed at a ratio of 1:1, and 10 µL of the mixed antibody solution was added to each well of the 384-well plate containing the compounds and proteins, followed by incubation at room temperature for 2 hours. Upon completion of the reaction, fluorescence signals at wavelengths of 620 nm and 665 nm were measured using a microplate reader.

tumor = tumor growth inhibition in a group administered with the compound (FIG. 1); type: in vivo; settings: graph of FIG. 1; group administered with Compound 218; no numbers printed in this part
MC38 hPD-L1 = experiment: Tumor growth inhibition in MC38 hPD-L1 subcutaneous mouse model; type: in vivo; settings: 50 mg/kg intraperitoneally once daily, female C57BL/6 mice
Description: In order to evaluate whether the tumor inhibitory effects of the compounds synthesized according to the above Preparation Examples are also effective in vivo, animal experiments were conducted as described below.
A mouse colon cancer cell line expressing human PD-L1 (MC38 hPD-L1) was prepared at a density of 1.25 x 10^6 cells in 100 µL of DPBS and inoculated subcutaneously into the flank of 6-week-old female C57BL/6 mice. When the average tumor volume reached approximately 50 mm^3, the mice were divided into three experimental groups, with eight mice per group. Vehicle and Compound 218 (50 mg/kg) were administered intraperitoneally once daily, while Durvalumab (anti-PD-L1 mAb) was administered intraperitoneally twice per week. Tumor volume and body weight were measured every three days.

T1 sequence (Q9NZQ7 19-290): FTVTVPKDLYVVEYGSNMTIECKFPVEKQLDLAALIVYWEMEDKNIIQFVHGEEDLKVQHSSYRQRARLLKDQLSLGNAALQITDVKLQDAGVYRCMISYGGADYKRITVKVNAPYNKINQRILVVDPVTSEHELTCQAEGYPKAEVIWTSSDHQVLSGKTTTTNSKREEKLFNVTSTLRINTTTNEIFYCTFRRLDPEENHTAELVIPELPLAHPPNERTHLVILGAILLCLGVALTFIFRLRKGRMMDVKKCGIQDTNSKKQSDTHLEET

Cc1c(NC(=O)c2ccc(CN3CC[C@@H](O)C3)cn2)cccc1-c1cccc(NC(=O)c2cc3n(n2)CCC[C@@H]3N2CC[C@@H](O)C2)c1C [Compound 216, (S)-4-((R)-3-hydroxypyrrolidin-1-yl)-N-(3'-(5-(((R)-3-hydroxypyrrolidin-1-yl)methyl)picolinamido)-2,2'-dimethyl-[1,1'-biphenyl]-3-yl)-4,5,6,7-tetrahydropyrazolo[1,5-a]pyridine-2-carboxamide]
Cell surface PD-L1 expression level (%) [1]: 3.0%
EC50 (PD-1/PD-L1 [2]): 31.6 nM
IC50 (PD-1/PD-L1 [3]): < 10 nM
EC50 (hPD-L1): 25.2 nM
induction of dimerization of hPD-L1 molecules (in words) (hPD-L1): effectively induced dimerization of hPD-L1 molecules at the nanomolar level

O=C(O)CN[C@H]1CCCn2nc(C(=O)Nc3cccc(-c4cccc(Nc5nccc6cc(CN7CC[C@@H](O)C7)cnc56)c4Cl)c3Cl)cc21 [Compound 218, 2-(((S)-2-((2,2'-dichloro-3'-((3-(((R)-3-hydroxypyrrolidin-1-yl)methyl)-1,7-naphthyridin-8-yl)amino)-[1,1'-biphenyl]-3-yl)carbamoyl)-4,5,6,7-tetrahydropyrazolo[1,5-a]pyridin-4-yl)amino)acetic acid]
tumor growth inhibitory effect (tumor): tumor growth inhibitory effect
Cell surface PD-L1 expression level (%) [1]: 0.3%
EC50 (PD-1/PD-L1 [2]): 19.2 nM
tumor growth inhibition compared to the vehicle-treated group (MC38 hPD-L1; Figure 1): significant inhibition of tumor growth
change in body weight of mice (MC38 hPD-L1; Figure 2): no change in body weight
IC50 (PD-1/PD-L1 [3]): < 10 nM
EC50 (hPD-L1): 6.1 nM
induction of dimerization of hPD-L1 molecules (in words) (hPD-L1): effectively induced dimerization of hPD-L1 molecules at the nanomolar level

O=C(O)CN[C@H]1CCCn2nc(C(=O)Nc3cccc(-c4cccc(NC(=O)c5ccc(CN6CC[C@@H](O)C6)cn5)c4Cl)c3Cl)cc21 [Compound 222, 2-(((S)-2-((2,2'-dichloro-3'-(5-(((R)-3-hydroxypyrrolidin-1-yl)methyl)picolinamido)-[1,1'-biphenyl]-3-yl)carbamoyl)-4,5,6,7-tetrahydropyrazolo[1,5-a]pyridin-4-yl)amino)acetic acid]
Cell surface PD-L1 expression level (%) [1]: 0.3%
EC50 (PD-1/PD-L1 [2]): 34.8 nM
IC50 (PD-1/PD-L1 [3]): < 10 nM

O=C(Nc1cccc(-c2cccc(Nc3nccc4cc(CN5CC[C@H](O)C5)cnc34)c2Cl)c1Cl)c1cc2n(n1)CCC[C@H]2N1CCC(C(=O)O)CC1 [Compound 227, 1-((R)-2-((2,2'-dichloro-3'-((3-(((S)-3-hydroxypyrrolidin-1-yl)methyl)-1,7-naphthyridin-8-yl)amino)-[1,1'-biphenyl]-3-yl)carbamoyl)-4,5,6,7-tetrahydropyrazolo[1,5-a]pyridin-4-yl)piperidine-4-carboxylic acid]
Cell surface PD-L1 expression level (%) [1]: 1.6%
EC50 (PD-1/PD-L1 [2]): 20.2 nM
IC50 (PD-1/PD-L1 [3]): 10 to 100 nM
EC50 (hPD-L1): 26.2 nM
induction of dimerization of hPD-L1 molecules (in words) (hPD-L1): effectively induced dimerization of hPD-L1 molecules at the nanomolar level
